For one compound, MIC results are on record in ChEMBL document CHEMBL1153280, “Synthesis and in vitro activity of dicationic bis-benzimidazoles as a new class of anti-MRSA and anti-VRE agents” (2009).

In brackets after ≈: the same amount, converted by molar mass.

Format in all cases: functional
In assay [1] the test system is Staphylococcus epidermidis. Nature of the assay: Antibacterial activity against methicillin-resistant Staphylococcus epidermidis ATCC 51625 by NCCLS method.
In assay [2] the test system is Staphylococcus aureus. The assay is described as follows: Antibacterial activity against multidrug-resistant Staphylococcus aureus BAA-39 by NCCLS method.
In another assay the test system is Clostridium perfringens. The assay is described as follows: Antibacterial activity against Clostridium perfringens ATCC 10388 by NCCLS method.
Another assay has as its system Streptococcus pneumoniae. Nature of the assay: Antibacterial activity against Streptococcus pneumoniae ATCC 6301 by NCCLS method.
In assay [3] the test system is Staphylococcus epidermidis. Nature of the assay: Antibacterial activity against Staphylococcus epidermidis ATCC 12228 by NCCLS method.
The subject of the next assay is Bacteroides fragilis. The assay is described as follows: Antibacterial activity against Bacteroides fragilis ATCC 23745 by NCCLS method.
Another assay concerns Bacillus subtilis. Nature of the assay: Antibacterial activity against Bacillus subtilis ATCC 23857 by NCCLS method.
A further assay has as its system Enterococcus faecalis. Nature of the assay: Antibacterial activity against vancomycin-resistant Enterococcus faecalis ATCC 51575 by NCCLS method.
The subject of the next assay is Enterococcus faecium. The assay is described as follows: Antibacterial activity against vancomycin-resistant Enterococcus faecium ATCC 700221 by NCCLS method.
In another assay the test system is Bacillus cereus. The assay is described as follows: Antibacterial activity against Bacillus cereus ATCC 11778 by NCCLS method.
For assay [4], the system named is Staphylococcus aureus. Nature of the assay: Antibacterial activity against methicillin-resistant Staphylococcus aureus ATCC 33591 by NCCLS method.
The test system of assay [5] is Staphylococcus aureus. The assay is described as follows: Antibacterial activity against Staphylococcus aureus ATCC 29213 by NCCLS method.

As usually defined, the MIC is the lowest concentration found to suppress growth. Lower therefore signals greater potency. For the compound `CC(C)NC(=N)c1ccc2[nH]c(-c3ccc(CCc4ccc(-c5nc6ccccc6[nH]5)cc4)cc3)nc2c1`, the MIC in [1] was 8 µg/mL (≈ 16 µM); against Staphylococcus aureus [2], > 32 µg/mL; in the assay on Clostridium perfringens, 1 µg/mL (≈ 2.01 µM); in the assay with Streptococcus pneumoniae it was > 32 µg/mL; in assay [3], 4 µg/mL (≈ 8.02 µM); in the assay on Bacteroides fragilis, > 32 µg/mL. The MIC against Bacillus subtilis is > 32 µg/mL; against Enterococcus faecalis, > 32 µg/mL; against Enterococcus faecium, 16 µg/mL (≈ 32.1 µM); in the assay with Bacillus cereus, 32 µg/mL (≈ 64.2 µM); in the assay with Staphylococcus aureus [4], > 32 µg/mL; against Staphylococcus aureus [5], > 32 µg/mL.
